Legend:
Human neurokinin (NK1) = molecular target: T1, Human neurokinin (NK1) (Homo sapiens, UniProt P25103); test: Radioligand binding, human neurokinin NK1 membranes, filtration, [125I]-Substance P; conditions: compound at 10 μM
T1 construct: purchased Perkin Elmer Biosignal
Summary of the method: (§1)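 Filtration binding on cloned human receptor membranes (1 Unit/well), [125I]-Substance P for NK1 and [3H]-Diprenorphine for KOP, 1 h at room temperature. Filters PEI-presoaked, washed with cold 50 mM Tris-HCl pH 7.4, counted by scintillation; percent inhibition calculated, reference ligand defining non-specific binding.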

Human Melanocortin (MC3) = molecular target: T2, Human Melanocortin (MC3) (Homo sapiens, UniProt P41968); test: Radioligand binding, human melanocortin MC3 membranes, FlashPlate, [125I]-NDP-αMSH; conditions: compound at 10 μM
T2 construct: purchased Perkin Elmer Biosignal
Summary of the method: (§2)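 Cloned human receptor membranes were coated onto FlashPlate wells and incubated with radioligand and compound (added from a 0.5 mM DMSO daughter plate) for 1 hour at room temperature in the dark. Scintillation counting gave percent inhibition, with DMSO defining total and reference ligand defining non-specific binding.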

Human μ-opioid (MOP) = molecular target: T3, Human μ-opioid (MOP) (Homo sapiens, UniProt P35372); test: Radioligand binding, human μ-opioid (MOP) membranes, FlashPlate, [3H]-Naloxone; conditions: compound at 10 μM
T3 construct: purchased Perkin Elmer Biosignal
Summary of the method: as §2

Human δ-opioid (DOP) = molecular target: T4, Human δ-opioid (DOP) (Homo sapiens, UniProt P41143); test: Radioligand binding, human δ-opioid (DOP) membranes, FlashPlate, [3H]-Bremazocine; conditions: compound at 10 μM
T4 construct: purchased Perkin Elmer Biosignal
Summary of the method: as §2

Human opioid (ORL1) = molecular target: T5, Human opioid (ORL1) (Homo sapiens, UniProt P41146); test: Radioligand binding, human opioid ORL1 membranes, FlashPlate, [125I]-Nociceptin; conditions: compound at 10 μM
T5 construct: purchased Perkin Elmer Biosignal
Summary of the method: as §2

Human Melanocortin (MC4) = molecular target: T6, Human Melanocortin (MC4) (Homo sapiens, UniProt P32245); test: Radioligand binding, human melanocortin MC4 membranes, FlashPlate, [125I]-NDP-αMSH; conditions: compound at 10 μM
T6 construct: purchased Perkin Elmer Biosignal
Summary of the method: as §2

Human κ-Opioid (KOP) = molecular target: T7, Human κ-Opioid (KOP) (Homo sapiens, UniProt P41145); test: Radioligand binding, human κ-opioid (KOP) membranes, filtration, [3H]-Diprenorphine; conditions: compound at 10 μM
T7 construct: purchased Perkin Elmer Biosignal
Summary of the method: as §1

Human melanocortin (MC5) = molecular target: T8, Human melanocortin (MC5) (Homo sapiens, UniProt P33032); test: Radioligand binding, human melanocortin MC5 membranes, FlashPlate, [125I]-NDP-αMSH; conditions: compound at 10 μM
T8 construct: purchased Perkin Elmer Biosignal
Summary of the method: as §2

[1] = molecular target: T9, Human melanin-concentrating hormone (MCH1) (Homo sapiens, UniProt Q99705); test: Radioligand binding, human melanin-concentrating hormone MCH1 membranes, FlashPlate, [125I]-S36057; conditions: compound at 10 μM; for A6: inhibition of radioligand binding, human melanin-concentrating hormone (MCH1): [125I]-S36057
T9 construct: purchased Perkin Elmer Biosignal
Summary of the method: as §2

[2] = molecular target: T10, Human neuropeptide Y (NPY-Y1) (Homo sapiens, UniProt P25929); test: Radioligand binding, human neuropeptide Y NPY-Y1 membranes, FlashPlate, [125I]-PYY; conditions: compound at 10 μM
T10 construct: purchased Perkin Elmer Biosignal
T10 sequence (P25929 1-384): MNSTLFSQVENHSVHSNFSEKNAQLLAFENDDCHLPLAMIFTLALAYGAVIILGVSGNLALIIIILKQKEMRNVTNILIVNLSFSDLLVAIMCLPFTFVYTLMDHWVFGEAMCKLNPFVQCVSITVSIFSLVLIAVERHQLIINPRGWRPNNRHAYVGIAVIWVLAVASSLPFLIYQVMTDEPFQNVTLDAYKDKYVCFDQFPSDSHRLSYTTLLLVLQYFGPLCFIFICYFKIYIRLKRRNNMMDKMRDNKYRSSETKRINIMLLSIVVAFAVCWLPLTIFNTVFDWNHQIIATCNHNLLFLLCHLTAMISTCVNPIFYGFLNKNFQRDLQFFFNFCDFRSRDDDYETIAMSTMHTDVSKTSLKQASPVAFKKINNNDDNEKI
Summary of the method: as §2

Mouse urotensin (mUR2) = molecular target: T11, Mouse urotensin (mUR2) (Mus musculus, UniProt Q8VIH9); test: Radioligand binding, mouse urotensin mUR2 membranes, FlashPlate, [125I]-Urotensin II; conditions: compound at 10 μM
T11 construct: purchased Perkin Elmer Biosignal
T11 sequence (Q8VIH9 1-385): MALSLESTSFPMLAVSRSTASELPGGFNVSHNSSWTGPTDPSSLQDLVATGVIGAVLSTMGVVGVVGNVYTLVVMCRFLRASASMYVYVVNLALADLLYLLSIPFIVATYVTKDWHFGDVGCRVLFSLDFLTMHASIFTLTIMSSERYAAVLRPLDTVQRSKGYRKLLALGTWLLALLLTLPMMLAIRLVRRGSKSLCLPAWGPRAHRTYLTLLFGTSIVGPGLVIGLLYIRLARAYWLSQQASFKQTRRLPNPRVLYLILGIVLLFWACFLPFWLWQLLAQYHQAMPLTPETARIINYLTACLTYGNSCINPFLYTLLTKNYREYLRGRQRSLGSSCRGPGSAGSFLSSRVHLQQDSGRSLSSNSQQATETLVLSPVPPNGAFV
Summary of the method: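 Cloned mouse urotensin (mUR2) receptor membranes from Perkin Elmer Biosignal were immobilized in FlashPlate microplates using a proprietary coating. Each well got 19.5 μl buffer, then 0.5 μl of DMSO, reference ligand, or compound. Adding 5 μl of [125I]-Urotensin II, diluted to 5× final concentration in binding buffer, started binding. Plates were sealed with TopSeal-A and incubated 1 hour at room temperature in the dark. Wells were counted for 30 seconds each on a TopCount after a 60-second delay, and percentage inhibition was calculated.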

T9 sequence (Q99705 whole entry): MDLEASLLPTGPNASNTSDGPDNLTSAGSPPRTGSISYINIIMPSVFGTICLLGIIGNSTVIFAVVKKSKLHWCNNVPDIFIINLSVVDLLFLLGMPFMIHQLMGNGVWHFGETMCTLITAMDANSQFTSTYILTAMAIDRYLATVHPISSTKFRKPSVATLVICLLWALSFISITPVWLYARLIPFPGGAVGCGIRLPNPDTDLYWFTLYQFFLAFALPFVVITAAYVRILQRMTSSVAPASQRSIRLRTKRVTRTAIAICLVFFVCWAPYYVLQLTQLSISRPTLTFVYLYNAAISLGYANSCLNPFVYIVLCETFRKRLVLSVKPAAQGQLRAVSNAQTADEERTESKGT
T3 sequence (P35372 whole entry): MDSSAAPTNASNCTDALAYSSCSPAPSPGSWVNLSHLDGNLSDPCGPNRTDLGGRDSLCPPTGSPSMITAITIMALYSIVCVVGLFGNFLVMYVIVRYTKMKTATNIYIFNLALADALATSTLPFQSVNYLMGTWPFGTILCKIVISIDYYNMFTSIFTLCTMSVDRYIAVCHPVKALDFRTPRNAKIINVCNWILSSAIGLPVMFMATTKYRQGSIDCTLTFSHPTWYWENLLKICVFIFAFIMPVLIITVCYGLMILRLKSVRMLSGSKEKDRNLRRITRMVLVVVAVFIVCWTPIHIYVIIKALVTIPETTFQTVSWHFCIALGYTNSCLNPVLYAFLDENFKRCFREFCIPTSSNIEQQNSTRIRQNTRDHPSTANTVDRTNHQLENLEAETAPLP
T8 sequence (P33032 whole entry): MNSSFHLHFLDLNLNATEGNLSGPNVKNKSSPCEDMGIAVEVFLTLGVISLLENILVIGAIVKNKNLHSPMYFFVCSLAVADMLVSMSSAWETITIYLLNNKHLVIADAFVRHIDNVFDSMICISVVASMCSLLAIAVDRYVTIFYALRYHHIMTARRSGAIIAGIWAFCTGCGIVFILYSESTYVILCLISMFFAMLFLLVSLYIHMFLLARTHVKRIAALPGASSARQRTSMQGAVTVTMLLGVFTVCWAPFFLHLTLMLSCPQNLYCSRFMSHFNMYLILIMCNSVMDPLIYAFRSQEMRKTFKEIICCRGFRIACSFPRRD
T7 sequence (P41145 whole entry): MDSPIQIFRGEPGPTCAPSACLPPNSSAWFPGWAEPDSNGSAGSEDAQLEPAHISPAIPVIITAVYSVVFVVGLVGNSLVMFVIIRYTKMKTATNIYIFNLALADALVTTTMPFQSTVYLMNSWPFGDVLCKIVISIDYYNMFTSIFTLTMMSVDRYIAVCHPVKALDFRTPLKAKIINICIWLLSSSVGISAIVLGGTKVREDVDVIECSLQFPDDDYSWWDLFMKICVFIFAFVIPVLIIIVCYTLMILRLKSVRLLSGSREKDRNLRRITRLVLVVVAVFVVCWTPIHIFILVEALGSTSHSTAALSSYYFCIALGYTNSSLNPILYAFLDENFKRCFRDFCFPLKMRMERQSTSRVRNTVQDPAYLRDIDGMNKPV
T5 sequence (P41146 whole entry): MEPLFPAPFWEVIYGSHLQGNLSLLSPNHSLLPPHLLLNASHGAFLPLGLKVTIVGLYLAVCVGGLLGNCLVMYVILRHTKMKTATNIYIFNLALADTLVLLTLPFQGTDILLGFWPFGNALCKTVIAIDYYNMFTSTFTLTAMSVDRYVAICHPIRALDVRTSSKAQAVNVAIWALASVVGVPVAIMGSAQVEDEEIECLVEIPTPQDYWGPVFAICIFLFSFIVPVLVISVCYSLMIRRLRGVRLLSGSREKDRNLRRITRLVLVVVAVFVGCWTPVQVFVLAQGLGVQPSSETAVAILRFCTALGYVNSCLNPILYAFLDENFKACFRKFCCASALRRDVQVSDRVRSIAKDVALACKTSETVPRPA
T6 sequence (P32245 whole entry): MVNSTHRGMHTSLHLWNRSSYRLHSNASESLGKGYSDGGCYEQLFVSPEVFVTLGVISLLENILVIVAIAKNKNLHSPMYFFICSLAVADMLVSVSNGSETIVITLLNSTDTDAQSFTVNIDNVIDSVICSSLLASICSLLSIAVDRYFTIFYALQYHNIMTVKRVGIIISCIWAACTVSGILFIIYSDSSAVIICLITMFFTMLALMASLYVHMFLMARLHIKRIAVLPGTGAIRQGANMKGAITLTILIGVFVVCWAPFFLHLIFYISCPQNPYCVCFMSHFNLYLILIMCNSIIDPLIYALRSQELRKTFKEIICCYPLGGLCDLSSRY
T1 sequence (P25103 whole entry): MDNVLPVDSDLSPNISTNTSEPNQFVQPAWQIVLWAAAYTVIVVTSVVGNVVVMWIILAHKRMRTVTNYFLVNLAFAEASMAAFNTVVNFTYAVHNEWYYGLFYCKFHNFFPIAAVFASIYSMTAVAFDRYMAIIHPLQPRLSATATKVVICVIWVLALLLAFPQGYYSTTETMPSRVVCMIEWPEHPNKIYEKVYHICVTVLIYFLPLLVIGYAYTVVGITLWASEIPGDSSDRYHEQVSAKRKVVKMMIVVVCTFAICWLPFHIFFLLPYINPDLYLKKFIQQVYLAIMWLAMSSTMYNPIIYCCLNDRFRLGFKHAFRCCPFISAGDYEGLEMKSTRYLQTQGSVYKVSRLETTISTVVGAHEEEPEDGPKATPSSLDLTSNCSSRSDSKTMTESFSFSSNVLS
T2 sequence (P41968 whole entry): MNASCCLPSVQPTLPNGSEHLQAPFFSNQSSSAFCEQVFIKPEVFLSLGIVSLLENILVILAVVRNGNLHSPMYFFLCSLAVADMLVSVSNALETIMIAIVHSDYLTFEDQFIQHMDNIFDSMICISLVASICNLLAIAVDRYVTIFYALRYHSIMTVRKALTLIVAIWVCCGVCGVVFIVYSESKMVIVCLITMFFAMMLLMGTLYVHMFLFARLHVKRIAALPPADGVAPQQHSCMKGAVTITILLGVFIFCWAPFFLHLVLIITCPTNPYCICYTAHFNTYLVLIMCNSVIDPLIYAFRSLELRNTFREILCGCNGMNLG
T4 sequence (P41143 whole entry): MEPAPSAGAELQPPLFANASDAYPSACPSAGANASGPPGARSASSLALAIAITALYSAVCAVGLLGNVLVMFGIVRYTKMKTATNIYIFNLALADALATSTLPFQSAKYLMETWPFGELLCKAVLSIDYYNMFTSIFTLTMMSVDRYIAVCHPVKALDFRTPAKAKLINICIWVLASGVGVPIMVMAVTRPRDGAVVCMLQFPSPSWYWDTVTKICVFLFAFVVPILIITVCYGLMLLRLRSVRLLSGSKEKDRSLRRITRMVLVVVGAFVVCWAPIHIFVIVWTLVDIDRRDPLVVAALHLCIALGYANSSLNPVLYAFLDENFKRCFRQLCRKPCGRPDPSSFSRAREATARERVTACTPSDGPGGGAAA

SMILES | A8: inhibition of radioligand binding, human neurokinin (NK1) (Human neurokinin (NK1); [125I]-Substance P) | A3: inhibition of radioligand binding, human melanocortin (MC3) (Human Melanocortin (MC3); [125I]-NDP-αMSH) | A7: inhibition of radioligand binding, human μ-opioid (MOP) (Human μ-opioid (MOP); [3H]-Naloxone) | A1: inhibition of radioligand binding, human δ-opioid (DOP) (Human δ-opioid (DOP); [3H]-Bremazocine) | A10: inhibition of radioligand binding, human opioid (ORL1) (Human opioid (ORL1); [125I]-Nociceptin) | A4: inhibition of radioligand binding, human melanocortin (MC4) (Human Melanocortin (MC4); [125I]-NDP-αMSH) | A2: inhibition of radioligand binding, human κ-opioid (KOP) (Human κ-Opioid (KOP); [3H]-Diprenorphine) | A5: inhibition of radioligand binding, human melanocortin (MC5) (Human melanocortin (MC5); [125I]-NDP-αMSH) | A6: inhibition of radioligand binding, human melanin-concentrating hormone (MCH1) [1] | A9: inhibition of radioligand binding, human neuropeptide Y (NPY-Y1) ([2]; [125I]-PYY) | A11: inhibition of radioligand binding, mouse urotensin (mUR2) (Mouse urotensin (mUR2); [125I]-Urotensin II) | further results
COC[C@H]1OC(OCc2ccccc2)[C@H](NC(=O)CNC(=N)N)[C@@H](OCc2ccc(Cl)cc2)[C@@H]1O (stereo partly shown) [compound 27] |  |  |  |  |  |  |  |  |  |  |  | A8 radioligand binding inhibition (Human neurokinin (NK1); human neurokinin NK1 membranes): − (“−” indicates less than 50% inhibition at 10 μM); A3 radioligand binding inhibition (Human Melanocortin (MC3); human melanocortin MC3 membranes): − (“−” indicates less than 50% inhibition at 10 μM); A7 radioligand binding inhibition (Human μ-opioid (MOP); human μ-opioid (MOP) membranes): − (“−” indicates less than 50% inhibition at 10 μM); A1 radioligand binding inhibition (Human δ-opioid (DOP); human δ-opioid (DOP) membranes): − (“−” indicates less than 50% inhibition at 10 μM); A10 radioligand binding inhibition (Human opioid (ORL1); human ORL1 membranes): − (“−” indicates less than 50% inhibition at 10 μM); A4 radioligand binding inhibition (Human Melanocortin (MC4); human melanocortin MC4 membranes): − (“−” indicates less than 50% inhibition at 10 μM); A2 radioligand binding inhibition (Human κ-Opioid (KOP); human κ-opioid (KOP) membranes): − (“−” indicates less than 50% inhibition at 10 μM); A5 radioligand binding inhibition (Human melanocortin (MC5); human melanocortin MC5 membranes): + (“+” indicates greater than 50% inhibition at 10 μM); A6 radioligand binding inhibition ([1]; human MCH1 membranes): − (“−” indicates less than 50% inhibition at 10 μM); A9 radioligand binding inhibition ([2]; human NPY-Y1 membranes): − (“−” indicates less than 50% inhibition at 10 μM); A11 radioligand binding inhibition (Mouse urotensin (mUR2); mouse urotensin mUR2 membranes): − (“−” indicates less than 50% inhibition at 10 μM)
CSC1O[C@H](COCc2ccccc2)[C@@H](O)[C@@H](OCc2ccc(-c3ccccc3)cc2)[C@H]1NC(=O)CCNC(=N)N (stereo partly shown) [compound 286] | + (“+” indicates greater than 50% inhibition at 10 μM) | − (“−” indicates less than 50% inhibition at 10 μM) | − (“−” indicates less than 50% inhibition at 10 μM) | − (“−” indicates less than 50% inhibition at 10 μM) | − (“−” indicates less than 50% inhibition at 10 μM) | − (“−” indicates less than 50% inhibition at 10 μM) | − (“−” indicates less than 50% inhibition at 10 μM) | + (“+” indicates greater than 50% inhibition at 10 μM) | − (“−” indicates less than 50% inhibition at 10 μM) | − (“−” indicates less than 50% inhibition at 10 μM) | − (“−” indicates less than 50% inhibition at 10 μM) | 
NCCC(=O)NC1C(OCc2ccc3ccccc3c2)OC(COCc2ccc(Cl)cc2)C(O)C1OCc1ccc(Cl)cc1 (stereo not shown) [compound 383] |  |  |  |  |  |  |  |  |  |  |  | A8: inhibition of radioligand binding (Human neurokinin (NK1); [125I]-Substance P, human NK1 membranes): + (“+” indicates greater than 50% inhibition at 10 μM); A3: inhibition of radioligand binding (Human Melanocortin (MC3); [125I]-NDP-αMSH, human MC3 membranes): + (“+” indicates greater than 50% inhibition at 10 μM); A7: inhibition of radioligand binding (Human μ-opioid (MOP); [3H]-Naloxone, human MOP membranes): − (“−” indicates less than 50% inhibition at 10 μM); A1: inhibition of radioligand binding (Human δ-opioid (DOP); [3H]-Bremazocine, human DOP membranes): − (“−” indicates less than 50% inhibition at 10 μM); A10: inhibition of radioligand binding (Human opioid (ORL1); [125I]-Nociceptin, human ORL1 membranes): − (“−” indicates less than 50% inhibition at 10 μM); A4: inhibition of radioligand binding (Human Melanocortin (MC4); [125I]-NDP-αMSH, human MC4 membranes): + (“+” indicates greater than 50% inhibition at 10 μM); A2: inhibition of radioligand binding (Human κ-Opioid (KOP); [3H]-Diprenorphine, human KOP membranes): − (“−” indicates less than 50% inhibition at 10 μM); A5: inhibition of radioligand binding (Human melanocortin (MC5); [125I]-NDP-αMSH, human MC5 membranes): + (“+” indicates greater than 50% inhibition at 10 μM); A6: inhibition of radioligand binding ([1]; [125I]-S36057, human MCH1 membranes): − (“−” indicates less than 50% inhibition at 10 μM); A9: inhibition of radioligand binding ([2]; [125I]-PYY, human NPY-Y1 membranes): − (“−” indicates less than 50% inhibition at 10 μM); A11: inhibition of radioligand binding (Mouse urotensin (mUR2); [125I]-Urotensin II, mouse mUR2 membranes): − (“−” indicates less than 50% inhibition at 10 μM)
NCCCC(=O)NC1C(OCc2ccc(Cl)cc2)OC(COCc2ccccc2)C(O)C1OCc1ccc2ccccc2c1 (single isomer, unassigned) [compound 497] | + (“+” indicates greater than 50% inhibition at 10 μM) | − (“−” indicates less than 50% inhibition at 10 μM) | − (“−” indicates less than 50% inhibition at 10 μM) | − (“−” indicates less than 50% inhibition at 10 μM) |  |  | − (“−” indicates less than 50% inhibition at 10 μM) | + (“+” indicates greater than 50% inhibition at 10 μM) | − (“−” indicates less than 50% inhibition at 10 μM) | − (“−” indicates less than 50% inhibition at 10 μM) | − (“−” indicates less than 50% inhibition at 10 μM) | A10: inhibition of radioligand binding, human opioid (ORL1) (Human opioid (ORL1); [125I]-Nociceptin, 10 µM): − (“−” indicates less than 50% inhibition at 10 μM); A4: inhibition of radioligand binding, human melanocortin (MC4) (Human Melanocortin (MC4); [125I]-NDP-αMSH, 10 µM): − (“−” indicates less than 50% inhibition at 10 μM)
CSC1OC(COCc2cccc(N)c2)C(O)C(OCc2ccc(Cl)cc2)C1NC(=O)c1ccccc1 (stereo not shown) [compound 332] | + (“+” indicates greater than 50% inhibition at 10 μM) | − (“−” indicates less than 50% inhibition at 10 μM) | − (“−” indicates less than 50% inhibition at 10 μM) | − (“−” indicates less than 50% inhibition at 10 μM) | − (“−” indicates less than 50% inhibition at 10 μM) | − (“−” indicates less than 50% inhibition at 10 μM) | − (“−” indicates less than 50% inhibition at 10 μM) | − (“−” indicates less than 50% inhibition at 10 μM) | − (“−” indicates less than 50% inhibition at 10 μM) | − (“−” indicates less than 50% inhibition at 10 μM) | − (“−” indicates less than 50% inhibition at 10 μM) | 
